Reference: patent EP0395653B1, “SYNOVIAL PHOSPHOLIPASES” (ELI LILLY AND COMPANY, priority 1987, dated 1989)

What was measured:
[1] = molecular target: T1, highly purified PLA₂ (Homo sapiens, UniProt P14555); assay: effect of SDS on rate of hydrolysis of phosphatidylcholine (Shakir's method); assay type: biochemical; details: of initial enzyme activity
T1 construct: from tissue; host or cells: pooled synovial fluid (CM Sephadex C50, Sephadex G75, preparative SDS-PAGE)
T1 sequence (P14555 21-144): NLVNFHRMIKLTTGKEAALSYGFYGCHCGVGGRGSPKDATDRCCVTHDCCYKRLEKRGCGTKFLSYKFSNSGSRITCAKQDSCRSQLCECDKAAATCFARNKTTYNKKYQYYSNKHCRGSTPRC
Method: Determination of phospholipase activities towards the radiolabeled synthetic substrates, dipalmitoylphosphatidylcholine, and 2-linoleoyl-1-palmitoylphosphatidylethanolamine, was carried out as described by Shakir, (1981) Anal Biochim 114:64-70. Standard incubation mixtures contained 750 nmol of phospholipid, 2 mM CaCl₂, 2 mM sodium deoxycholate (DOC), 0.09% Triton X-100, and enzyme protein in 0.1 M Tris-HCl buffer in a total volume of 400 µl. Incubations were carried out at optimal pH (see below) for 1 h at 37°C in a shaking water bath. The reaction was stopped by addition of 2.0 ml of n-heptane-isopropanol-1 N sulfuric acid (1:4:0.1, v/v/v). Released fatty acids were extracted by the method of Shakir, (1981) Anal Biochim 114:64-70. PLA₂ activity is expressed as nmol of released fatty acid per mg of protein per h.
The effect of SDS on the rate of hydrolysis of phosphatidylcholine by highly purified PLA₂ was studied using Shakir's method, supra. SDS inhibited PLA₂ activity on a concentration-dependent manner. Inhibition of PLA₂ was 94 and 7% of initial enzyme activity at SDS concentrations of 1 mg/ml and 0.1 mg/ml, respectively. In evaluating the utility of preparative SDS-PAGE, recovery of enzyme from the slab gel was consistently between 95-100% of the total enzyme applied to the gel.

[2] = system: sPLA₂ type B; assay: effect of Tris or Na deoxycholate on hydrolytic activity; assay type: biochemical, human
[3] = molecular target: sPLA₂ type A (Homo sapiens, UniProt P14555); details: 0.5 M Tris

## CCCCCCCCCCCCOS(=O)(=O)[O-].[Na+] [SDS, sodium dodecyl sulfate]
[1]; SDS 0.1 mg/ml
  inhibition at 100 µg/mL: 7%
[1]; SDS 1 mg/ml
  inhibition at 1000 µg/mL: 94%

## NC(CO)(CO)CO [Tris]
[2]; 0.5 M Tris
  effect on hydrolytic activity of type B relative to type A: considerable stimulation
[3]
  effect on sPLA₂ type A activity: inhibited

## sodium deoxycholate [Na deoxycholate]
[2]; 0.1% Na deoxycholate
  effect on hydrolytic activity of type B relative to type A: considerable stimulation
